Test results reported in patent publication US10124004B2, “Pyrido[3,4-d]pyrimidine derivative and pharmaceutically acceptable salt thereof” (Teijin Pharma Limited, priority 2015, dated 2018).
Read-outs that look alike come from different tables or passages of the source.

How the values were obtained:
CDK4/cyclin D3 = biological target: T1, CDK4/cyclin D3 (Homo sapiens, UniProt P11802); experiment: Human CDK4/cyclin D3 inhibitory activity (QS S Assist CDK4/Cyclin D3_FP Kit, IMAP fluorescence polarization); type: biochemical
T1 construct: purchased Carna Biosciences, Inc. QS S Assist CDK4/Cyclin D3_FP Kit
Method in brief: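 IMAP fluorescence polarization kit: CDK4/cyclin D3 at 12.5-25 ng/well with kit ATP/substrate/metal mix in 20 mM HEPES pH 7.4, 0.01% Tween20, 2 mM DTT, 45 min at room temperature. FP read at 485/535 nm after 30 min binding; IC50 from dose-response fit of percent inhibition versus enzyme and no-enzyme controls.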

CDK2/cyclin A2 = biological target: T2, CDK2/cyclin A2 (Homo sapiens, UniProt P24941); experiment: Human CDK2/cyclin A2 inhibitory activity (QS S Assist CDK2/Cyclin A2_FP Kit, IMAP fluorescence polarization); type: biochemical
T2 construct: purchased Carna Biosciences, Inc. QS S Assist CDK2/Cyclin A2_FP Kit
Method in brief: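 Kinase activity read as fluorescence polarization (485/535 nm) after phosphorylated fluorescent substrate binds IMAP reagent (30 min, RT, dark). Enzyme (2.5 ng/well) reacted 60 min at RT with ATP/substrate/metal in HEPES pH 7.4 buffer with Tween 20 and DTT; no-enzyme wells define 0% activity; IC50 by curve fit.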

[1] = 50% inhibitory concentration against CDK4/cyclin D3, given as class symbol
[2] = 50% inhibitory concentration against CDK2/cyclin A2, given as class symbol
[3] = Human CDK4/cyclin D3 inhibitory activity, read-out: CDK4 Activity symbol
[4] = Human CDK2/cyclin A2 inhibitory activity, read-out: CDK2 Activity symbol

T1 sequence (P11802 whole entry): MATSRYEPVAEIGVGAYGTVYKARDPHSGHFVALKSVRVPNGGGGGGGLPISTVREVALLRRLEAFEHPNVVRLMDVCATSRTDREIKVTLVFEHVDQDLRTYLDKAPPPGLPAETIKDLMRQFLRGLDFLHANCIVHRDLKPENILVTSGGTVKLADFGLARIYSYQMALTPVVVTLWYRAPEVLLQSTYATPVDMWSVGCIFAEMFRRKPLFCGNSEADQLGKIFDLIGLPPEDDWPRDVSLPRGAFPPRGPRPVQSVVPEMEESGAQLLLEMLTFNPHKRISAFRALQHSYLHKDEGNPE
T1 sequence (P30281 whole entry partner): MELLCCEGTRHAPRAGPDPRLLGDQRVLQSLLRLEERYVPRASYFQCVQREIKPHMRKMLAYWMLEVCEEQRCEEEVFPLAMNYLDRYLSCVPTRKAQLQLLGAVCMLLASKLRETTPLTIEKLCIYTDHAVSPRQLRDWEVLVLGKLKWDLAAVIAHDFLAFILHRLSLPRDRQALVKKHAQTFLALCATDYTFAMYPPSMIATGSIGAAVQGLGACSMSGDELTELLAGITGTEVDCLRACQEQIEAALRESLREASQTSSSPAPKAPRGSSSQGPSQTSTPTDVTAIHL

IC50 (CDK4/cyclin D3; [1]) [nM]	IC50 (CDK2/cyclin A2; [2]) [nM]	IC50 (CDK4/cyclin D3; [3]) [nM]	IC50 (CDK2/cyclin A2; [4]) [nM]	Structure (SMILES)
< 10	≥ 100			C[C@@H](O)c1cc2cnc(Nc3ccc(N4CCN(C)CC4)nn3)nc2c(NC(C)(C)CO)n1 [Compound 1101]
10 to 100	≥ 100			CCCNc1nc(C(F)F)cc2cnc(Nc3ccc(CN4CCC(C(=O)O)CC4)cn3)nc12 [Compound 1097]
< 10	≥ 100			CC(C)Nc1nc([C@@H](C)O)cc2cnc(Nc3ccc(CN4CCN(C(=O)CN(C)C)CC4)cn3)nc12 [Compound 1194]
< 10	≥ 100			CCCNc1nc(C2(C)COC2)cc2cnc(Nc3ccc4c(n3)CCNC4)nc12 [Compound 947]
< 10	≥ 100			C[C@@H](O)c1cc2cnc(Nc3ccc(CN4CCN(CCO)CC4)cn3)nc2c(NC(C)(C)C)n1 [Compound 1071]
< 10	≥ 100			CC(C)Nc1nc([C@@H](C)O)cc2cnc(Nc3ccc(CN4CCC[C@H](O)C4)cn3)nc12 [Compound 1199]
< 10	≥ 100			CO[C@H](C)c1cc2cnc(Nc3ccc4c(n3)CCN(CCO)C4)nc2c(N[C@H]2CCCOC2)n1 [Compound 1121]
< 10	≥ 100			C[C@@H](O)c1cc2cnc(Nc3ccc(CN4CCC(CO)CC4)cn3)nc2c(NC2CCC2)n1 [Compound 1150]
< 10	≥ 100			C[C@@H](O)c1cc2cnc(Nc3ccc(N4CCNCC4=O)cn3)nc2c(NCCCF)n1 [Compound 1079]
< 10	≥ 100			CNC(=O)CN1CCN(Cc2ccc(Nc3ncc4cc([C@@H](C)O)nc(NC(C)C)c4n3)nc2)CC1 [Compound 1017]
10 to 100	≥ 100			CCNc1nc([C@@H](C)OC)cc2cnc(Nc3ccc4c(n3)CCN(CCO)C4)nc12 [Compound 1120]
10 to 100	≥ 100			CCCNc1nc(C(C)=O)cc2cnc(Nc3ccc(CN4CCN(CCO)CC4)cn3)nc12 [Compound 974]
< 10	≥ 100			CO[C@H](C)c1cc2cnc(Nc3ccc(CN4CCN(CC(=O)N(C)C)CC4)cn3)nc2c(NC(C)C)n1 [Compound 972]
< 10	≥ 100			CC(C)Nc1nc(C2CCOC2)cc2cnc(Nc3ccc(N4CCNCC4)cn3)nc12 (centres unmarked) [Compound 1007]
< 10	≥ 100			CCCNc1nc(C2(C)COC2)cc2cnc(Nc3ccc(CN4CCNCC4)cn3)nc12 [Compound 1003]
10 to 100	≥ 100			CCCNc1nc([C@@H](C)O)cc2cnc(Nc3ccc(-c4cncn4C)cn3)nc12 [Compound 959]
< 10	≥ 100			CCNc1nc([C@@H](C)O)cc2cnc(Nc3ccc(CN4CCC(O)CC4)cn3)nc12 [Compound 1060]
< 10	≥ 100			C[C@@H](O)c1cc2cnc(Nc3ccc(CN4CCCC(O)C4)cn3)nc2c(N[C@H]2CC[C@H](O)CC2)n1 (some centres unmarked) [Compound 1086]
< 10	≥ 100			CO[C@H](C)c1cc2cnc(Nc3ccc4c(n3)CCN(CCO)C4)nc2c(N[C@H]2CC[C@H](O)CC2)n1 [Compound 1153]
< 10	≥ 100			c1cc(N2CCNCC2)nnc1Nc1ncc2cc(C3CCOC3)nc(N[C@H]3CCCOC3)c2n1 (single isomer, unassigned) [Compound 939]
< 10	≥ 100			CC1(c2cc3cnc(Nc4ccc(CN5CCNCC5)cn4)nc3c(NCC3CC(F)(F)C3)n2)COC1 [Compound 1110]
10 to 100	≥ 100			CCNc1nc([C@@H](C)O)cc2cnc(Nc3ccc4c(n3)CCN(CCO)C4)nc12 [Compound 1124]
< 10	≥ 100			CC(=O)c1cc2cnc(Nc3ccc4c(n3)CCNC4)nc2c(NC(C)C)n1 [Compound 1027]
< 10	≥ 100			CC(C)Nc1nc([C@@H](C)O)cc2cnc(Nc3ccc(Cn4cncn4)cn3)nc12 [Compound 949]
< 10	≥ 100			CNCCN1CCc2nc(Nc3ncc4cc([C@@H](C)O)nc(NC(C)C)c4n3)ccc2C1 [Compound 930]

Further lines, the molecule ahead of its results:

Structure (SMILES)	IC50 (CDK4/cyclin D3; [1]) [nM]	IC50 (CDK2/cyclin A2; [2]) [nM]	IC50 (CDK4/cyclin D3; [3]) [nM]	IC50 (CDK2/cyclin A2; [4]) [nM]
O=C1CNCCN1c1ccc(Nc2ncc3cc(C(F)F)nc(N[C@H]4CCCOC4)c3n2)nc1 [Compound 849]	< 10	10 to 100		
CC(C)Nc1nc([C@@H](C)O)cc2cnc(Nc3ccc(OCCNS(C)(=O)=O)cn3)nc12 [Compound 867]	< 10	≥ 100		
C[C@@H](O)c1cc2cnc(Nc3ccc(C4CCN(CC(=O)O)CC4)cn3)nc2c(NC(C)(C)C)n1 [Compound 830]	< 10	≥ 100		
CC(C)Nc1nc(C(F)F)cc2cnc(Nc3ccc(-c4cn[nH]c4)cn3)nc12 [Compound 209]			10 to 100	≥ 100
C[C@@H](O)c1cc2cnc(Nc3ccc(CN4CCNCC4)cn3)nc2c(N[C@H]2CCCOC2)n1 [Compound 256]			< 10	≥ 100
CC(O)CN1CCN(c2ccc(Nc3ncc4cc([C@@H](C)O)nc(NC(C)C)c4n3)nc2)C(=O)C1 (some centres unmarked) [Compound 636]	< 10	≥ 100		
CO[C@H](C)c1cc2cnc(Nc3ccc(CN4CCNCC4)cn3)nc2c(N[C@H]2CC[C@H](O)CC2)n1 [Compound 345]			< 10	≥ 100
CC(C)Nc1nc([C@@H](C)O)cc2cnc(Nc3ccc(N4CCC(CCC(=O)O)CC4)nn3)nc12 [Compound 828]	10 to 100	≥ 100		
CC(C)Nc1nc([C@@H](C)O)cc2cnc(Nc3ccc4c(n3)CCNC4)nc12 [Compound 693]	< 10	≥ 100		
CC(C)Nc1nc(C(F)F)cc2cnc(Nc3ccc(C(N)=O)cn3)nc12 [Compound 96]			10 to 100	10 to 100
CO[C@H](C)c1cc2cnc(Nc3ccc(CN4CCn5ccnc5C4)cn3)nc2c(NC(C)C)n1 [Compound 275]			10 to 100	≥ 100
CO[C@H](C)c1cc2cnc(Nc3ccc(CN4CCCOCC4)cn3)nc2c(NC(C)C)n1 [Compound 273]			< 10	≥ 100
CC(O)CN1CCN(c2ccc(Nc3ncc4cc([C@@H](C)O)nc(NC(C)C)c4n3)nn2)CC1 (some centres unmarked) [Compound 637]	< 10	≥ 100		
CC(C)Nc1nc([C@@H](C)O)cc2cnc(Nc3ccc(N4CCN=CC4=O)cn3)nc12 [Compound 731]	< 10	≥ 100		
C[C@@H](O)c1cc2cnc(Nc3ccc(N4CCC(O)CC4)nn3)nc2c(NC2CCC(C)(C)OC2)n1 (some centres unmarked) [Compound 589]			< 10	≥ 100
COC1CCC(Nc2nc(C(C)O)cc3cnc(Nc4ccc(OC5CCNCC5F)cn4)nc23)CC1 (centres unmarked) [Compound 646]	< 10	≥ 100		
Cc1c(C(F)F)nc(NC(C)C)c2nc(Nc3ccc(N4CCNCC4)cn3)ncc12 [Compound 60]			< 10	≥ 100

Structure (SMILES)	IC50 (CDK4/cyclin D3; [1]) [nM]	IC50 (CDK2/cyclin A2; [2]) [nM]	IC50 (CDK4/cyclin D3; [3]) [nM]	IC50 (CDK2/cyclin A2; [4]) [nM]
CC(C)Nc1nc(C(F)F)cc2cnc(Nc3ccc(CN4CCOCCC4=O)cn3)nc12 [Compound 173]			< 10	10 to 100
CCCNc1nc([C@@H](C)OC)cc2cnc(Nc3ccc(CN4C[C@H]5C[C@@H]4CN5)cn3)nc12 [Compound 857]	< 10	≥ 100		
CC(C)Nc1nc([C@@H](C)O)cc2cnc(Nc3ccc(N4CCC(O)CC4)nn3)nc12 [Compound 260]			< 10	≥ 100
C[C@@H](O)c1cc2cnc(Nc3ccc(N4CCN(C)CC4)nn3)nc2c(NC2CCC(C)(C)OC2)n1 (some centres unmarked) [Compound 639]	< 10	≥ 100		
CC(C)Nc1nc([C@@H](C)O)cc2cnc(Nc3ccc(OCC4CNC4)nn3)nc12 [Compound 579]			< 10	≥ 100
CC(O)c1cc2cnc(Nc3ccc(N4CCNCC4)cn3)nc2c(NC(C)c2cn[nH]c2)n1 (centres unmarked) [Compound 106]			< 10	≥ 100
C[C@@H](O)c1cc2cnc(Nc3ccc(N4CCNCC4)nn3)nc2c(NCC2CCOCC2)n1 [Compound 313]			< 10	≥ 100
CC(C)Nc1nc([C@@H](C)O)cc2cnc(Nc3ccc(N4CCN[C@H](C(C)C)C4=O)cn3)nc12 [Compound 766]	10 to 100	≥ 100		
COCC(C)(C)Nc1nc([C@@H](C)O)cc2cnc(Nc3ccc(CN4CCOCC4)cn3)nc12 [Compound 180]			10 to 100	≥ 100
CC(C)Nc1nc([C@@H](C)O)cc2cnc(Nc3ccc(C4CCN(CC(=O)O)CC4)cn3)nc12 [Compound 829]	< 10	≥ 100		
CNC1CCCC1Oc1ccc(Nc2ncc3cc(C(C)O)nc(NC(C)C)c3n2)nc1 (centres unmarked) [Compound 739]	< 10	≥ 100		
CC(C)Nc1nc([C@@H](C)O)cc2cnc(Nc3ccc(N4CCNCCC4=O)cn3)nc12 [Compound 522]			< 10	10 to 100
C[C@@H](O)c1cc2cnc(Nc3ccc(CN4CCNCC4)cn3)nc2c(NCC2CCOCC2)n1 [Compound 312]			< 10	≥ 100
CC(C)Nc1nc([C@@H](C)O)cc2cnc(Nc3ccc(N4CC5(CC(O)C5)C4)nn3)nc12 [Compound 524]			< 10	≥ 100
CNCCOc1ccc(Nc2ncc3cc([C@@H](C)O)nc(NC4CCC(C)(C)OC4)c3n2)nc1 (some centres unmarked) [Compound 634]	< 10	≥ 100		
COCC(C)(C)Nc1nc([C@@H](C)O)cc2cnc(Nc3cnc(N4CCNCC4)cn3)nc12 [Compound 373]			< 10	≥ 100
